Assay results published in the NIST ThermoML archive (doi:10.1016/j.jct.2007.07.005).

Assay: xn = mol fraction of the nth substance listed
Conditions: Fluid (supercritical or subcritical phases), vibrating tube

CCCCCO [pentan-1-ol] + O=C=O
Conditions	mass density [kg/m3]
323.11 K, 21027 kPa, x2 = 0.1347	813.66
323.11 K, 21051 kPa, x2 = 0.6054	847.84
323.11 K, 22019 kPa, x2 = 0.6054	849.47
323.11 K, 22027 kPa, x2 = 0.1347	814.42
323.11 K, 23017 kPa, x2 = 0.1347	815.16
323.11 K, 23023 kPa, x2 = 0.6054	851.13
323.11 K, 24022 kPa, x2 = 0.1347	815.93
323.11 K, 24036 kPa, x2 = 0.6054	852.76
323.11 K, 24999 kPa, x2 = 0.1347	816.68
323.11 K, 25069 kPa, x2 = 0.6054	854.41
332.79 K, 493 kPa, x2 = 0	784.29
332.79 K, 1014 kPa, x2 = 0	784.76
332.79 K, 2006 kPa, x2 = 0	785.61
332.79 K, 3025 kPa, x2 = 0	786.48
332.79 K, 4011 kPa, x2 = 0	787.28
332.79 K, 5020 kPa, x2 = 0	788.11
332.79 K, 6003 kPa, x2 = 0	788.91
332.79 K, 6997 kPa, x2 = 0	789.73
332.79 K, 8009 kPa, x2 = 0	790.54
332.79 K, 8995 kPa, x2 = 0	791.31
332.79 K, 9996 kPa, x2 = 0	792.12
332.79 K, 11018 kPa, x2 = 0	792.9
332.79 K, 11995 kPa, x2 = 0	793.66
332.79 K, 13023 kPa, x2 = 0	794.45
332.79 K, 13999 kPa, x2 = 0	795.19
332.79 K, 15010 kPa, x2 = 0	795.95
332.79 K, 16028 kPa, x2 = 0	796.68
332.79 K, 17003 kPa, x2 = 0	797.41
332.79 K, 18040 kPa, x2 = 0	798.14
332.79 K, 19004 kPa, x2 = 0	798.84
332.79 K, 20035 kPa, x2 = 0	799.59
332.79 K, 21024 kPa, x2 = 0	800.29
332.79 K, 21993 kPa, x2 = 0	800.97
332.79 K, 23039 kPa, x2 = 0	801.71
332.79 K, 24015 kPa, x2 = 0	802.4
332.79 K, 25022 kPa, x2 = 0	803.12
332.93 K, 8022 kPa, x2 = 0.3624	806.47
332.93 K, 9003 kPa, x2 = 0.3624	807.66
332.93 K, 9033 kPa, x2 = 0.4651	808.88
332.93 K, 10018 kPa, x2 = 0.3624	808.86
332.93 K, 10027 kPa, x2 = 0.4651	810.57
332.93 K, 10989 kPa, x2 = 0.3624	809.94
332.93 K, 11000 kPa, x2 = 0.4651	812.22
332.93 K, 12008 kPa, x2 = 0.3624	811.14
332.93 K, 12019 kPa, x2 = 0.4651	813.92
332.93 K, 12032 kPa, x2 = 0.8067	770.68
332.93 K, 12989 kPa, x2 = 0.9757	593.78
332.93 K, 12995 kPa, x2 = 0.8067	780.67
332.93 K, 13015 kPa, x2 = 0.3624	812.22
332.93 K, 13017 kPa, x2 = 0.4651	815.52
332.93 K, 13981 kPa, x2 = 0.3624	813.29
332.93 K, 13992 kPa, x2 = 0.9757	633.72
332.93 K, 14013 kPa, x2 = 0.8067	788.98
332.93 K, 14027 kPa, x2 = 0.4651	817.14
332.93 K, 15014 kPa, x2 = 0.9757	664.21
332.93 K, 15021 kPa, x2 = 0.3624	814.39
332.93 K, 15023 kPa, x2 = 0.4651	818.68
332.93 K, 15025 kPa, x2 = 0.8067	796.09
332.93 K, 15992 kPa, x2 = 0.3624	815.41
332.93 K, 16007 kPa, x2 = 0.4651	820.18
332.93 K, 16011 kPa, x2 = 0.9757	687.95
332.93 K, 16021 kPa, x2 = 0.8067	802.3
332.93 K, 17012 kPa, x2 = 0.3624	816.44
332.93 K, 17014 kPa, x2 = 0.4651	821.68
332.93 K, 17021 kPa, x2 = 0.8067	808.04
332.93 K, 17022 kPa, x2 = 0.9757	707.96
332.93 K, 18010 kPa, x2 = 0.3624	817.48
332.93 K, 18021 kPa, x2 = 0.8067	813.35
332.93 K, 18021 kPa, x2 = 0.9757	724.84
332.93 K, 18040 kPa, x2 = 0.4651	823.21
332.93 K, 19008 kPa, x2 = 0.9757	739.5
332.93 K, 19011 kPa, x2 = 0.8067	818.27
332.93 K, 19015 kPa, x2 = 0.4651	824.63
332.93 K, 19032 kPa, x2 = 0.3624	818.5
332.93 K, 19997 kPa, x2 = 0.3624	819.44
332.93 K, 20022 kPa, x2 = 0.8067	822.95
332.93 K, 20026 kPa, x2 = 0.4651	826.05
332.93 K, 20041 kPa, x2 = 0.9757	753.18
332.93 K, 21019 kPa, x2 = 0.4651	827.43
332.93 K, 21021 kPa, x2 = 0.9757	764.86
332.93 K, 21024 kPa, x2 = 0.3624	820.43
332.93 K, 21029 kPa, x2 = 0.8067	827.4
332.93 K, 21989 kPa, x2 = 0.8067	831.41
332.93 K, 21997 kPa, x2 = 0.4651	828.79
332.93 K, 22013 kPa, x2 = 0.3624	821.46
332.93 K, 22013 kPa, x2 = 0.9757	775.63
332.93 K, 23008 kPa, x2 = 0.8067	835.47
332.93 K, 23021 kPa, x2 = 0.3624	822.42
332.93 K, 23031 kPa, x2 = 0.4651	830.22
332.93 K, 23997 kPa, x2 = 0.3624	823.36
332.93 K, 24024 kPa, x2 = 0.4651	831.62
332.93 K, 24893 kPa, x2 = 0.3624	824.24
332.95 K, 13016 kPa, x2 = 0.8573	754.58
332.95 K, 13026 kPa, x2 = 0.9216	704.11
332.95 K, 14021 kPa, x2 = 0.9216	723.65
332.95 K, 14042 kPa, x2 = 0.8573	766.56
332.95 K, 15016 kPa, x2 = 0.9216	739.26
332.95 K, 15028 kPa, x2 = 0.8573	776.2
332.95 K, 15984 kPa, x2 = 0.9216	752.12
332.95 K, 16013 kPa, x2 = 0.8573	784.6
332.95 K, 17014 kPa, x2 = 0.8573	792.22
332.95 K, 17039 kPa, x2 = 0.9216	764.27
332.95 K, 18011 kPa, x2 = 0.8573	799.17
332.95 K, 18019 kPa, x2 = 0.9216	774.24
332.95 K, 19005 kPa, x2 = 0.9216	783.37
332.95 K, 19027 kPa, x2 = 0.8573	805.67
332.95 K, 20006 kPa, x2 = 0.8573	811.5
332.95 K, 20008 kPa, x2 = 0.9216	791.89
332.95 K, 20996 kPa, x2 = 0.8573	817.04
332.95 K, 21037 kPa, x2 = 0.9216	799.89
332.95 K, 21691 kPa, x2 = 0.9216	804.69
332.95 K, 22056 kPa, x2 = 0.8573	822.62
332.95 K, 23032 kPa, x2 = 0.8573	827.46
332.95 K, 24010 kPa, x2 = 0.8573	832.11
332.96 K, 3007 kPa, x2 = 0.0816	789.68
332.96 K, 4028 kPa, x2 = 0.0816	790.6
332.96 K, 4991 kPa, x2 = 0.0816	791.47
332.96 K, 5998 kPa, x2 = 0.0816	792.36
332.96 K, 7025 kPa, x2 = 0.0816	793.27
332.96 K, 7995 kPa, x2 = 0.0816	794.13
332.96 K, 9031 kPa, x2 = 0.0816	795.01
332.96 K, 10005 kPa, x2 = 0.0816	795.83
332.96 K, 11008 kPa, x2 = 0.0816	796.67
332.96 K, 12026 kPa, x2 = 0.0816	797.53
